From patent US11014934B2, “Antiseptic drug” (AO “TATKHIMFARMPREPARATY”, priority 2017, dated 2021)

Legend:
[1] = tested on: clinical staphylococci; assay: MIC screening, summary for clinical staphylococci; type: cell-based; details: range over clinical staphylococci, one strain excepted
Description: (§1) A comparative assessment of the spectrum of antibacterial action was carried out on archival and clinical strains of gram-positive and gram-negative microorganisms in accordance with the [Opredeleniye chuvstvitel'nosti mikroorganizmov k antibakterial'nym preparatam (Metodicheskiye ukazaniya MUK 4.2.1890-04). Utverzhdeny i vvedeny v deystviye Glavnym gosudarstvennym sanitarnym vrachom Rossiyskoy Federatsii G. G. Onishchenko 04.03.2004 g. Determination of the sensitivity of microorganisms to antibacterial drugs (Guidelines MUK 4.2.1890-04). Approved and put into effect by the Chief State Sanitary Doctor of the Russian Federation G. G. Onishchenko on 4 Mar. 2004].
(§2) The value of the minimum inhibitory concentration (MIC) was determined by the method of serial dilutions on Müller-Hinton broth using 96-well sterile plates. […] The growth of cultures was assessed visually, comparing the growth of microorganisms in the presence of test compounds with the growth of culture without them. […] The first lowest concentration of the studied substance (from a series of consecutive dilutions), where bacterial growth is not visually determined, is considered to be the minimum inhibitory concentration (MIC). MIC was determined by the method of serial dilutions in broth with increment=2, so the differences of neighboring dilutions are not considered to be significant. […]

[2] = tested on: clinical enterococci; assay: MIC screening, summary for clinical enterococci; type: cell-based; details: range over clinical enterococci
Description: as §1, §2

[3] = tested on: S.marcescens in the biofilm; assay: Antibacterial activity against cells immersed in a biofilm matrix (CFU, drop plate); type: cell-based
Description: (§3) To determine the effectiveness of the antibiotic against bacteria in […], bacteria were grown in Basal medium for 3 days at a temperature of 37° C. without swinging to obtain a dense biofilm [A. R Kayumov, Khakimullina E., Sharafutdinov I, Trizna E., Latypova L., Lien Thi, Margulis A., Bogachev M, Kurbangalieva A. Inhibition of biofilm formation in Bacillus subtilis by new halogenated furanoses. J. Antibiotics.—2014.—V. 68.—No 5.—P. 297-301.]. Then the biofilm was washed with a sterile 0.9% NaCl solution and fresh sterile medium was poured. Antiseptics were added to concentrations (1-16)×MBC (minimum bactericidal concentration) and incubated for 24 hours. Then the culture fluid was removed from the wells, washed once with 0.9% NaCl solution to remove non-adherent cells, and cell viability in biofilms was evaluated by counting CFU by Drop plate analysis [B. Herigstad, M Hamilton, J. Heersink How to optimize the drop plate method for enumerating bacteria. J Microbiol Methods.—2001.—V. 44.—P. 121-129]. To do this, the biofilm was mechanically removed from the surface and homogenized in 0.9% NaCl by pipetting and ultrasonic treatment. Then, serial 10-fold dilutions of the bacterial suspension in 0.9% NaCl were prepared, and 5 μI of each suspension were transferred to plates with dense nutrient medium. CFU was counted from drops containing 5-10 colonies.
(§4) The results of the study of antimicrobial activity against cells of the studied strains immersed in the biofilm matrix, in comparison with miramistin and benzalkonium chloride, are presented in FIGS. 1 and 2.

[4] = tested on: gram-positive microorganisms in the biofilm; assay: as above; type: cell-based
Description: as §3, §4

[5] = Acute toxicity in mice after intragastric administration; type: in vivo; details: both sexes, mouse, in vivo, po; Mice CD-1, intragastric administration; read-out: LD50 (95% confidence interval)
Description: (§5) The study was performed on mice of the CD-1 (ICR) line (6-8 weeks, weight not less than 18 g) of both sexes. […] Mice administered doses were 3000 mg/kg, 2000 mg/kg, 1000 mg/kg, 500 mg/kg and 50 mg/kg.

[6] = tested on: mice of the CD-1 (ICR) line; assay: as above; type: in vivo
Description: as §5

[7] = tested on: Cells of a light cow embryo (LCE); assay: State of the LCE cell monolayer with the drug without the virus; type: cell-based
Description: Cells of a light cow embryo (LCE) are obtained from the Federal State Budgetary Institution “All-Russian Institute of Experimental Veterinary Medicine”, Moscow. Bovine rhinotracheitis virus (herpes virus family), vaccine strain “TK-A (VIEV)-V2” was obtained from the Federal State Budgetary Institution “All-Russian Institute of Experimental Veterinary Medicine”, Moscow.
The virus was incubated in the presence of compound I in a culture medium at 37° C. for one hour at various concentrations; miramistin and benzalkonium chloride served as control preparations. After incubation of the virus with substances, it was added to the cell culture, which was then incubated at 37° C., 5% CO2 for 72 hours.
Evaluation of the cytopathogenic effect was carried out visually by the state of the cell monolayer as compared with the controls (virus without incubation with the drug, the studied drug concentrations without the virus). The virus titer was calculated using the method of Reed-Muench in the modification of Ashmarin and expressed in Ig TCD50/ml.

[8] = both, CD-1 (ICR), mouse, in vivo

| Compound | MIC [1] [µg/mL] | MIC for clinical enterococci [2] [µg] | activity in the biofilm compared with comparison antiseptics [3] | higher activity compared to miramistin and benzalkonium chloride ([4]; same decrease of CFU at lower excess of MBC) [fold] | LD50 [5] [mg/kg] | hazard class in accordance with GOST 12.1.007-76 ([6]; acute toxicity, oral, mice) | toxicity class according to the Globally Harmonized System (GOST 32644-2014) ([6]; acute toxicity, oral, mice) [th toxicity class] | LD16 [6, 8] [mg/kg] | LD86 [6, 8] [mg/kg] | Number of died animals in the group ([6]; both, CD-1 (ICR), mouse, in vivo, 50 mg/kg) | Number of died animals in the group ([6]; both, CD-1 (ICR), mouse, in vivo, 500 mg/kg) | Number of died animals in the group ([6]; both, CD-1 (ICR), mouse, in vivo, 1000 mg/kg) | Number of died animals in the group ([6]; both, CD-1 (ICR), mouse, in vivo, 2000 mg/kg) | Number of died animals in the group ([6]; both, CD-1 (ICR), mouse, in vivo, 3000 mg/kg) | less active than benzalkonium chloride [4] [times] | destruction of the monolayer, drug without the virus ([7]; 50 μg/ml) | destruction of the monolayer, drug without the virus ([7]; 100 μg/ml) | destruction of the monolayer, drug without the virus ([7]; 150 μg/ml) | destruction of the monolayer, drug without the virus ([7]; 200 μg/ml) |
| --- | --- | --- | --- | --- | --- | --- | --- | --- | --- | --- | --- | --- | --- | --- | --- | --- | --- | --- | --- |
| CCCCCCCCCCCC[N+](C)(C)Cc1cnc(C[N+](C)(C)CCCCCCCCCCCC)c2c1COC(CC)O2 (stereo not shown) [Compound I, 5,8-(Bis(methylene (N, N-dimethyl-N-dodecylammonium))-2-ethyl-4H-[1,3]dioxino [4,5-c]pyridiniumdichloride] | 1 to 8 | 0.03 to 4 | the same activity as miramistine and benzalconium chloride | 2 | 1710 | 3rd class of moderately hazardous harmful substances | 4 | 788 | 2623 | 0/6 | 0/6 | 3/6 | 5/10 | 4/4 | – | – | – | – | – |
| CCCCCCCCCCCCCC(=O)NCCC[N+](C)(C)Cc1ccccc1.O.[Cl-] [Miramistin, benzyldimethyl [3-(myristoylamino)propyl]-ammonium chloride monohydrate] | – | – | – | – | – | – | – | – | – | – | – | – | – | – | 2 | − (−0-10% destruction of the monolayer) | − (−0-10% destruction of the monolayer) | − (−0-10% destruction of the monolayer) | − (−0-10% destruction of the monolayer) |
